The target of data set [1] is T1, AHR (UniProt P35869).
T1 construct: IC50
T1 sequence (P35869 1-848): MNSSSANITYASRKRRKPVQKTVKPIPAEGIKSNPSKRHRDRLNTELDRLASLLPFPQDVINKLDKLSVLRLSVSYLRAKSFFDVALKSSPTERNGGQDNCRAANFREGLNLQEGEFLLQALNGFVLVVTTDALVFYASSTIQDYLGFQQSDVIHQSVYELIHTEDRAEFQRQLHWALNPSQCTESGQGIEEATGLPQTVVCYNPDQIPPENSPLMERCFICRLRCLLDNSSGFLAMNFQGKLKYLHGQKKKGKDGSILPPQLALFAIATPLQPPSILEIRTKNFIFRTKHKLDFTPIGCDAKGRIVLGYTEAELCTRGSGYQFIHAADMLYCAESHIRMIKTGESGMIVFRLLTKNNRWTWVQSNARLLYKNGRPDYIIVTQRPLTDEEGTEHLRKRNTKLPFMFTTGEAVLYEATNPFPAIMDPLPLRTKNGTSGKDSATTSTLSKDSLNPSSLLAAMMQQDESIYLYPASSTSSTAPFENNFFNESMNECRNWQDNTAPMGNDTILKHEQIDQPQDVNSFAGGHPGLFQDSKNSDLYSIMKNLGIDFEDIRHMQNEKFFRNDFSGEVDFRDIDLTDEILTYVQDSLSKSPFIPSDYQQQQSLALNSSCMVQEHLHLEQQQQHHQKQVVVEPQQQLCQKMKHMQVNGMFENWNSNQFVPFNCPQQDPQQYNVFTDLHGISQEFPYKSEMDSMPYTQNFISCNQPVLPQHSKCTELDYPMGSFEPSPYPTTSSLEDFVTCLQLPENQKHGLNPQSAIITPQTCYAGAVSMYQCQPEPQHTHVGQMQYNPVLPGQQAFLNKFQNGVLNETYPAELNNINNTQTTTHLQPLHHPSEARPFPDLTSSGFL
Nature of the data set: DRE-Luciferase Reporter Assay (Example 1A). Type of data set: cell-based, murine or human. Particulars: cell line and AHR activating ligand not specified. The method, then:
AHR binds to Dioxin Responsive Elements (DRE) upstream of genes that it activates. One measure of AHR activity is activation of a reporter gene, such as luciferase, downstream of one or multiple DRE elements. Luciferase activity will reflect activation and inhibition of AHR in the cells expressing his reporter.
Murine Hepa1-6 or Hepa-1c1c7 or other murine cell line with a DRE-luciferase reporter either stably or transiently transfected were plated in media in plates (96-well, 384-well or other plates) and incubated overnight at 37° C. in a CO2 incubator. Likewise, human HepG2 or other human cell line with a DRE-luciferase reporter either stably or transiently transfected were plated in media in plates (96-well, 384-well or other plates) and incubated overnight at 37° C. in a CO2 incubator.
The next day, an AHR activating ligand, such as TCDD, kynurenine, ITE (2-(1H-indole-3-ylcarbonyl)-4-thiazolecarboxylic methyl ester), VAF347, BNF (beta-naphthoflavone), FICZ (6-formylindolo(3,2-b) carbazole or other AHR ligands, was added with or without AHR antagonist.
Cells were incubated for 4, 15 or 24 hours or another time point and then lysed for determination of luciferase activity as a read-out of the AHR activation or inhibition. Luciferase was measured with a commercial kit such as the Promega Luciferase kit or any kit or reagents that provide the luciferin substrate for measuring luciferase activity. The level of luciferase with only activating ligand added was the maximum signal while the luciferase with no ligand was the minimum signal. IC50 values were determined as the concentration which inhibits half of the luciferase activity.

Data set [2] deals with T1, AHR. Kind of data set: DRE-Luciferase Reporter Assay (Alternate Method) (Example 1B). Type of data set: cell-based, murine or human. Particulars: cell line and AHR activating ligand not specified.
A short description of data set [3]: In Vitro Mouse liver S9 Metabolic Stability Assay (Example 1D). The data set is classed as in vitro ADME. The following applies: CD-1 mouse liver S9, 1 μM compound, 1 mg/mL S9 protein, 37° C., NADPH regenerating system, UDPGA, PAPS. In outline:
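Compound at 1 μM final (0.1% DMSO) incubated at 37° C with pooled CD-1 mouse liver S9 (1 mg/mL protein) plus NADPH-regenerating system, UDPGA and PAPS. Samples at 0 and 60 min quenched in cold acetonitrile with internal standard; LC-MS/MS analyte/IS peak-area ratios give % remaining at 60 min.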

Data set [4] in a line: Mouse Pharmacokinetic Study (Example 1C). Type of data set: in vivo. Particulars: mouse, plasma, CD-1 mice; for Vd: read-out: Vdss. A digest of the protocol:
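CD-1 mice dosed intravenously or by oral gavage; plasma sampled at 0.167, 0.5, 1, 2, 4, 6, 12 and 24 h post-dose. Samples analyzed by LC/MS/MS (MRM, positive mode) against a plasma standard curve of 1.0–3000 ng/mL; PK parameters from non-compartmental analysis.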

The subject of data set [5] is Cyp1a1. Nature of the data set: In Vivo Mouse liver and spleen Cyp1a1 Modulation Assay (Example 1E). The arrangement: species or system C57BL/6 mice. Particulars: po, dose 30 mg/kg, with AHR agonist VAG539 30 mg/kg po, qPCR. As to the method: C57BL/6 mice, female, 6-8 weeks old, weighing approximately 18-20 g were purchased from Shanghai Lingchang Biological Technology Co., Ltd or other certified vendors and used in the studies. Animal husbandry, feeding and health conditions are according to animal welfare guidelines. VAG539 (30 mg/kg, po) was used as AHRagonist, and test compounds were formulated in suitable vehicles, typically 0.5% methylcellulose).
C57BL/6 mice (n=3 per group) were treated with AHR agonist alone or with AHR agonist and test compounds. Animals were sacrificed at 4 or 10 hours after treatment upon which their livers and spleens were collected and subsequently analyzed by qPCR. Normalized fold induction of cyp1a1 was determined by comparing mCYP1A1 and mGAPDH counts (ct) according to: normalized fold=2^−ΔΔCt. The percent inhibition was calculated according to: […]

Setting [6] is: 4 h, read-out: Cyp1a1 inhibition, Liver, 4 h.

Where two headings read alike, the source gives them in different places.

For the compound `CC(C)c1n[nH]c2c(NCCc3c[nH]c4ccccc34)nc(-c3cncc(F)c3)nc12` [I-1, 5-(5-Fluoro-3-pyridyl)-N-[2-(1H-indol-3-yl)ethyl]-3-isopropyl-1H-pyrazolo[4,3-d]pyrimidin-7-amine], the IC50 in data set [1] was 1 to 1.5 µM; in data set [2], less than 0.5 µM.

In the case of `CC(C)c1csc2c(NCCc3c[nH]c4ccccc34)nc(-c3cncc(F)c3)nc12` [I-3, N-(2-(1H-indol-3-yl)ethyl)-2-(5-fluoropyridin-3-yl)-7-isopropylthieno[3,2-d]pyrimidin-4-amine], the results for the IC50 in data set [1] and in data set [2] were 1 to 1.5 µM and less than 0.5 µM, respectively.

On to `CC(C)n1ccc2c(NCCc3c[nH]c4ccccc34)nc(-c3cncc(F)c3)nc21` [I-4, 2-(5-Fluoro-3-pyridyl)-N-[2-(1H-indol-3-yl)ethyl]-7-isopropyl-pyrrolo[2,3-d]pyrimidin-4-amine], for which the IC50 in data set [1] and in data set [2] was less than 0.5 µM in each case. For the same compound, the “Mouse S9 Stability: % Remaining After 60 Minutes” value in data set [3] worked out at 0%.

Turning to `Fc1cncc(-c2nc(NCCc3c[nH]c4ccccc34)c3ccsc3n2)c1` [I-5, N-(2-(1H-indol-3-yl)ethyl)-2-(5-fluoropyridin-3-yl)thieno[2,3-d]pyrimidin-4-amine], the figures for the IC50 in data set [1] and in data set [2] were more than 1.5 µM and less than 0.5 µM, respectively.

For the compound `CC(C)n1cnc2c(NCCc3c[nH]c4ccccc34)nc(-c3cncc(F)c3)nc21` [I-6], the IC50 in data set [1] and in data set [2] was less than 0.5 µM throughout. Also, the “Mouse S9 Stability: % Remaining After 60 Minutes” value in data set [3] worked out at 0%.

Consider `CC(C)n1cnc2c(NCCc3c[nH]c4cccnc34)nc(-c3cncc(F)c3)nc21` [I-7, 2-(5-Fluoro-3-pyridyl)-9-isopropyl-N-[2-(1H-pyrrolo[3,2-b]pyridin-3-yl)ethyl]purin-6-amine], for which the IC50 is less than 0.5 µM in data set [1] and more than 1.5 µM in data set [2].

As to `CC(C)n1cnc2c(NCCc3c[nH]c4cnccc34)nc(-c3cncc(F)c3)nc21` [I-9, 2-(5-Fluoro-3-pyridyl)-9-isopropyl-N-[2-(1H-pyrrolo[2,3-c]pyridin-3-yl)ethyl]purin-6-amine], the half-inhibitory concentration (IC50) in data set [1] lay within 1 to 1.5 µM; in data set [2], 0.5 to 1 µM.

As for `CC(C)c1ccc2c(NCCc3c[nH]c4ccccc34)nc(-c3cncc(F)c3)nn12` [I-19, N-(2-(1H-Indol-3-yl)ethyl)-2-(5-fluoropyridin-3-yl)-7-isopropylpyrrolo[2,1-f][1,2,4]triazin-4-amine], the IC50 in data set [1] is 0.5 to 1 µM; in data set [2], less than 0.5 µM.

Take `CC(C)c1cnn2c(N[C@@H]3CCc4[nH]c5ccccc5c4C3)cc(-c3cncc(F)c3)nc12` [I-75a, (3R)—N-[5-(5-fluoro-3-pyridyl)-3-isopropyl-pyrazolo[1,5-a]pyrimidin-7-yl]-2,3,4,9-tetrahydro-1H-carbazol-3-amine]: the 50% inhibitory concentration (IC50) in data set [2] was more than 1.5 µM. Besides, in data set [4] (po, 30 mg/kg), the bioavailability worked out at 51%, the concentration peaked (Cmax) at 0.969 µg/mL, the Tmax came out at 2 h and the half-life is 9.8 h. In data set [4] (iv, 3 mg/kg), this compound had an AUC(0-inf) of 2.27 µg·h/mL, an AUC(0-t) of 2.67 µg·h/mL, a clearance of 0.864 L/h/kg and a half-life of 13.8 h. In addition, in data set [4] (iv, 3 mg/kg), the Vd amounted to 13.7 L/kg. For the same compound, in data set [3], the “Mouse S9 Stability: % Remaining After 60 Minutes” value was 65%. Moreover, the inhibition at 30 mg/kg in data set [5] (setting [6]) is 55%.

Consider `Fc1cncc(-c2cc(NCCc3c[nH]c4ccccc34)n3nccc3n2)c1` [I-103, 5-(5-Fluoro-3-pyridyl)-N-[2-(1H-indol-3-yl)ethyl]pyrazolo[1,5-a]pyrimidin-7-amine], for which, in data set [2], the IC50 is less than 0.5 µM. In data set [4] (po, 30 mg/kg), the bioavailability amounted to 6%, the AUC(0-inf) is 0.671 µg·h/mL, the AUC(0-t) is 0.649 µg·h/mL and the highest concentration (Cmax) was determined as 0.713 µg/mL. Besides, in data set [4] (po, 30 mg/kg), the time of peak concentration (Tmax) was determined as 0.2 h and the half-life is 2.15 h. In data set [4] (iv, 3 mg/kg), this compound showed an AUC(0-inf) of 1.14 µg·h/mL, an AUC(0-t) of 1.14 µg·h/mL, a clearance of 2.63 L/h/kg and a half-life of 0.62 h. Further, the Vd in data set [4] (iv, 3 mg/kg) is 1.4 L/kg. In addition, in data set [3], the “Mouse S9 Stability: % Remaining After 60 Minutes” value is given as 7%. Also, the inhibition at 30 mg/kg in data set [5] (setting [6]) was 94%. The inhibition at 30 mg/kg in data set [5] (10 h, read-out: Cyp1a1 inhibition, Liver, 10 h) was 0%.

(Values after patent US11358969B2, “Indole AHR inhibitors and uses thereof” (Ikena Oncology, Inc., priority 2017, dated 2022).)
